How the values were obtained:
NET = NET (Homo sapiens, UniProt P23975); assay: hNET radioligand binding assay (3H-nisoxetine); parameters: expressed in transfected cells; host or cells: HEK-293; conditions: hNET membranes (HEK-293), 1.0 nM 3H-nisoxetine; for Ki: read-out: NET pKi (converted)
Experimental: (§1) Membrane radioligand binding assays were used to measure inhibition of labeled ligand (^3H-citalopram or ^3H-nisoxetine or ^3H-WIN35428) binding to membranes prepared from cells expressing the respective human recombinant transporter (hSERT or hNET or hDAT) in order to determine the pKi values of test compounds at the transporters.
(§2) Recombinant human embryonic kidney (HEK-293) derived cell lines stably transfected with hSERT or hNET, respectively, were grown in DMEM medium supplemented with 10% dialyzed FBS (for hSERT) or FBS (for hNET), 100 μg/ml penicillin, 100 μg/ml streptomycin, 2 mM L-glutamine and 250 μg/ml of the aminoglycoside antibiotic G418, in a 5% CO2 humidified incubator at 37° C. When cultures reached 80% confluence, the cells were washed thoroughly in PBS (without […] and Mg^2+) and lifted with 5 mM EDTA in PBS. Cells were pelleted by centrifugation, resuspended in lysis buffer (10 mM Tris-HCl, pH7.5 containing 1 mM EDTA), homogenized, pelleted by centrifugation, then resuspended in 50 mM Tris-HCl, pH 7.5 and 10% sucrose at 4° C. Protein concentration of the membrane suspension was determined using a Bio-Rad Bradford Protein Assay kit. Membranes were snap frozen and stored at −80° C. Chinese hamster ovary membranes expressing hDAT (CHO-DAT) were purchased from PerkinElmer and stored at −80° C.
(§3) Binding assays were performed in a 96-well assay plate in a total volume of 200 μl assay buffer (50 mM Tris-HCl, 120 mM NaCl, 5 mM KCl, pH 7.4) with 0.5, 1, and 3 μg membrane protein, for SERT, NET and DAT, respectively.
(§4) Stock solutions (10 mM in DMSO) of test compound were prepared and serial dilutions made using Dilution Buffer (50 mM Tris-HCl, 120 mM NaCl, 5 mM KCl, pH 7.4, 0.1% BSA, 400 μM ascorbic acid).
(§5) Following a 60 minute incubation at 22° C. (or a period sufficient to reach equilibrium), the membranes were harvested by rapid filtration over a 96-well UniFilter GF/B plate, pretreated with 0.3% polyethyleneimine, and washed 6 times with 300 μl wash buffer (50 mM Tris-HCl, 0.9% NaCl, pH 7.5 at 4° C.). Plates were dried overnight at room temperature, ˜45 μl of MicroScint™-20 (Perkin Elmer) added and bound radioactivity quantitated via liquid scintillation spectroscopy. Inhibition curves and saturation isotherms were analyzed using GraphPad Prism Software package (GraphPad Software, Inc., San Diego, Calif.). IC50 values were generated from concentration response curves using the Sigmoidal Dose Response (variable slope) algorithm in Prism GraphPad. Kd and Bmax values for the radioligand were generated from saturation isotherms using the Saturation Binding Global Fit algorithm in Prism GraphPad. pKi (negative decadic logarithm of Ki) values for test compounds were calculated from the best-fit IC50 values, and the Kd value of the radioligand, using the Cheng-Prusoff equation (Cheng & Prusoff (1973) Biochem. Pharmacol. 22(23):3099-3108): Ki=IC50/(1+[L]/Kd), where [L]=concentration radioligand.

SERT = SERT (Homo sapiens, UniProt P31645); assay: hSERT radioligand binding assay (3H-citalopram); parameters: expressed in transfected cells; host or cells: HEK-293; conditions: hSERT membranes (HEK-293), 1.0 nM 3H-citalopram; for Ki: read-out: SERT pKi (converted)
Chain of SERT (P31645 whole entry): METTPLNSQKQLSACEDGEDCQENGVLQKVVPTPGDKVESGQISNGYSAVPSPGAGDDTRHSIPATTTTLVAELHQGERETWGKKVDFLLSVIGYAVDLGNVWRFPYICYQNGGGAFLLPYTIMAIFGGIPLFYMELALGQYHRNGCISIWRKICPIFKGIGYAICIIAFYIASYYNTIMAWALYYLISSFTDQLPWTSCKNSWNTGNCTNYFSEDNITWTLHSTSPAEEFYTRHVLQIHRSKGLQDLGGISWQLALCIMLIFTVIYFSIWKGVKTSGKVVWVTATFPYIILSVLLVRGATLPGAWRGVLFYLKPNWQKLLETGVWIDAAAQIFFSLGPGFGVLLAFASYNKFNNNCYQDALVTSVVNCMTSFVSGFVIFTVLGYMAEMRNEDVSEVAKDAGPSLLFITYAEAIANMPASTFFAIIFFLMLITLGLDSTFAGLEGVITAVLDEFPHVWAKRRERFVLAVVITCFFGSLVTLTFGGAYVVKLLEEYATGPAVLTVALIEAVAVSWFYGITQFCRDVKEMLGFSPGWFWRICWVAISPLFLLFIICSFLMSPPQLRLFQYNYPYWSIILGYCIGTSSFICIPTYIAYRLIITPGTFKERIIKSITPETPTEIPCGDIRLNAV
Experimental: as §1, §2, §3, §4, §5

Chain of NET (P23975 whole entry): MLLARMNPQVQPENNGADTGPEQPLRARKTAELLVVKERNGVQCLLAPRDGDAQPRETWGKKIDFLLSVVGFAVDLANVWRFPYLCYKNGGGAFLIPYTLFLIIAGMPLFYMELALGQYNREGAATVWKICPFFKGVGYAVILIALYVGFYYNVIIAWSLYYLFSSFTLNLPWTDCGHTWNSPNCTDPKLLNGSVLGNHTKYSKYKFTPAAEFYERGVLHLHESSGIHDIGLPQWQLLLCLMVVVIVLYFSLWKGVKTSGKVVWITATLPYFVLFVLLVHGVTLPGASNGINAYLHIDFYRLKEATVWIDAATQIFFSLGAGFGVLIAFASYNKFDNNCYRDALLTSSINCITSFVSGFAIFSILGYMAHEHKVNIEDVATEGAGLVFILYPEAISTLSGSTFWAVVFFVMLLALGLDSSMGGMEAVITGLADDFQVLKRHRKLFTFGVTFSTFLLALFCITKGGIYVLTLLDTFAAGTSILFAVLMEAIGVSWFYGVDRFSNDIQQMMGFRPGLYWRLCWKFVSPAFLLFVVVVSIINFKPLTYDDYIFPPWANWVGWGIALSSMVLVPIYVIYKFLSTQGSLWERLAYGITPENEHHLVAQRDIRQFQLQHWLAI

SMILES	NET pKi (NET)	SERT pKi (SERT)	Ki (NET) [µM]	Ki (SERT) [µM]
Clc1cccc(O[C@@H](c2ncco2)[C@H]2CCNC2)c1Cl.O=C(O)C(F)(F)F [6-49]	≧7.0	≧7.0		
Cc1c(Cl)cccc1O[C@@H](c1ncco1)[C@H]1CCNC1.O=C(O)C(F)(F)F [6-50]	≧7.0	≧7.0		
COc1ccccc1O[C@@H](c1ncco1)[C@H]1CCNC1.O=C(O)C(F)(F)F [6-52]	≧7.0	≧5.0		
CCc1cc(F)cc(F)c1O[C@@H](c1ncco1)[C@H]1CCNC1 [6-53]	≧7.0	≧7.0		
Fc1cc(F)c(Cl)c(O[C@@H](c2cnccn2)[C@H]2CCNC2)c1Cl.O=C(O)C(F)(F)F [10-1]	≧7.0	≧7.0		
Fc1cc(F)c(Cl)c(O[C@H](c2cnccn2)[C@H]2CCNC2)c1Cl [10-2]			≤ 10	≤ 10
Fc1ccc(F)c(O[C@@H](c2cnccn2)[C@H]2CCNC2)c1Cl.O=C(O)C(F)(F)F [10-3]	≧7.0	≧5.0		
Fc1ccc(F)c(O[C@H](c2cnccn2)[C@H]2CCNC2)c1Cl [10-4]			≤ 10	≤ 0.1
Cc1cc(Cl)ccc1O[C@@H](c1cnccn1)[C@H]1CCNC1.O=C(O)C(F)(F)F [10-5]	≧7.0	≧7.0		
Cc1cc(Cl)ccc1O[C@H](c1cnccn1)[C@H]1CCNC1 [10-6]			≤ 10	≤ 0.1
COc1ccccc1O[C@@H](c1cnccn1)[C@H]1CCNC1.O=C(O)C(F)(F)F [10-7]	≧7.0	≧5.0		
COc1ccccc1O[C@H](c1cnccn1)[C@H]1CCNC1 [10-8]			≤ 10	≤ 10
Clc1cc(Cl)cc(O[C@H](c2cnccn2)[C@H]2CCNC2)c1 [10-10]			≤ 10	≤ 0.1
Fc1ccc(F)c(O[C@@H](c2cncnc2)[C@H]2CCNC2)c1Cl.O=C(O)C(F)(F)F [12-1]	≧7.0	≧5.0		
Fc1ccc(F)c(O[C@H](c2cncnc2)[C@H]2CCNC2)c1Cl [12-2]			≤ 10	≤ 0.1
Cc1cc(Cl)ccc1O[C@@H](c1cncnc1)[C@H]1CCNC1.O=C(O)C(F)(F)F [12-3]	≧7.0	≧7.0		
COc1ccccc1OC(c1cncnc1)C1CCNC1 (stereo not shown) [12-4]	≧7.0	≧5.0		
Clc1cc(Cl)cc(O[C@@H](c2cncnc2)[C@H]2CCNC2)c1.O=C(O)C(F)(F)F [12-5]	≧5.0	≧7.0		
Fc1cc(F)c(O[C@@H](c2ccccc2)[C@H]2CCNC2)nc1F.O=C(O)C(F)(F)F [14-1]	≧5.0	≧7.0		
Cc1c(F)c(F)nc(O[C@@H](c2ccccc2)[C@H]2CCNC2)c1F.O=C(O)C(F)(F)F [14-4]	≧5.0	≧7.0		
Fc1ccc(O[C@@H](c2ccccc2)[C@H]2CCNC2)nc1F.O=C(O)C(F)(F)F [14-5]	≧7.0	≧5.0		
Fc1c(Cl)nc(O[C@@H](c2ccccc2)[C@H]2CCNC2)c(F)c1Cl.O=C(O)C(F)(F)F [14-6]	≧7.0	≧7.0		

SMILES	NET pKi (NET)	SERT pKi (SERT)	Ki (NET) [µM]	Ki (SERT) [µM]
Clc1cccc(O[C@@H](c2ccccc2)[C@H]2CCNC2)n1.O=C(O)C(F)(F)F [14-9]	≧7.0	≧7.0		
Fc1cccc(O[C@@H](c2ccccc2)[C@H]2CCNC2)n1.O=C(O)C(F)(F)F [14-10]	≧7.0	≧5.0		
Cc1cccc(O[C@@H](c2ccccc2)[C@H]2CCNC2)n1.O=C(O)C(F)(F)F [14-11]	≧5.0	≧5.0		
Cc1nc(O[C@@H](c2ccccc2)[C@H]2CCNC2)c(Br)cc1Br.O=C(O)C(F)(F)F [14-12]	≧7.0	≧7.0		
Brc1cnc(O[C@@H](c2ccccc2)[C@H]2CCNC2)c(Br)c1.O=C(O)C(F)(F)F [14-13]	≧7.0	≧7.0		
Clc1cnc(OC(c2ccccc2)C2CCNC2)c(Cl)c1 (stereo not shown) [14-14]	≧7.0	≧7.0		
Fc1cnc(O[C@H](c2ccccc2)[C@@H]2CCNC2)c(F)c1.O=C(O)C(F)(F)F [14-16]	≧7.0	≧7.0		
Fc1cnc(O[C@@H](c2ccccc2)[C@H]2CCNC2)c(F)c1.O=C(O)C(F)(F)F [14-17]	≧7.0	≧5.0		
Fc1cnc(O[C@@H](c2ccccc2)[C@H]2CCNC2)c(F)c1C(F)(F)F.O=C(O)C(F)(F)F [14-18]	≧7.0	≧7.0		
Brc1ccc(O[C@@H](c2ccccc2)[C@H]2CCNC2)nc1.O=C(O)C(F)(F)F [14-20]	≧7.0	≧7.0		
Cc1cc(Br)cnc1O[C@@H](c1ccccc1)[C@H]1CCNC1.O=C(O)C(F)(F)F [14-21]	≧7.0	≧7.0		
FC(F)(F)c1ccc(O[C@@H](c2ccccc2)[C@H]2CCNC2)nc1.O=C(O)C(F)(F)F [14-23]	≧5.0	≧7.0		
FC(F)(F)c1ccc(O[C@H](c2ccccc2)[C@@H]2CCNC2)nc1.O=C(O)C(F)(F)F [14-24]	≧5.0	≧7.0		
FC(F)(F)c1cnc(O[C@@H](c2ccccc2)[C@H]2CCNC2)c(Cl)c1.O=C(O)C(F)(F)F [14-25]	≧5.0	≧7.0		
Clc1ccc(O[C@H](c2ccccc2)[C@@H]2CCNC2)nc1.O=C(O)C(F)(F)F [14-27]	≧7.0	≧7.0		
Fc1cc(Cl)cnc1O[C@@H](c1ccccc1)[C@H]1CCNC1.O=C(O)C(F)(F)F [14-28]	≧5.0	≧7.0		
Fc1ccc(O[C@@H](c2ccccc2)[C@H]2CCNC2)nc1.O=C(O)C(F)(F)F [14-29]	≧7.0	≧7.0		
Cc1ccc(O[C@@H](c2ccccc2)[C@H]2CCNC2)nc1.O=C(O)C(F)(F)F [14-30]	≧7.0	≧5.0		
Cc1cnc(O[C@@H](c2ccccc2)[C@H]2CCNC2)c(Br)c1.O=C(O)C(F)(F)F [14-31]	≧7.0	≧7.0		
Cc1ccnc(OC(c2ccccc2)C2CCNC2)c1 (stereo not shown) [14-32]	≧7.0	≧7.0		
FC(F)(F)c1cccnc1O[C@H](c1ccccc1)[C@@H]1CCNC1.O=C(O)C(F)(F)F [14-33]	≧5.0	≧5.0		
FC(F)(F)c1cccnc1O[C@@H](c1ccccc1)[C@H]1CCNC1.O=C(O)C(F)(F)F [14-34]	≧5.0	≧7.0		

From patent US20100267743A1, “3-(PHENOXYPYRROLIDIN-3-YL-METHYL)HETEROARYL, 3-(PHENYLPYRROLIDIN-3-YLMETHOXY)HETEROARYL, AND 3-(HETEROARYLPYRROLIDIN-3-YLMETHOXY)HETEROARYL COMPOUNDS” (priority 2009, published 2010)
